Consider 3 compounds from patent publication US12473339B2, “Acylated glucagon analogues” (Zealand Pharma A/S, priority 2013, dated 2025).

What all share (format): cell-based
The target of experiment [1] is T1, endogenous GLP-1 receptors (Mus musculus, UniProt O35659).
T1 construct: Agonistic activity of the test compounds on endogenous GLP-1 receptors; endogenous in cells
T1 sequence (O35659 22-463): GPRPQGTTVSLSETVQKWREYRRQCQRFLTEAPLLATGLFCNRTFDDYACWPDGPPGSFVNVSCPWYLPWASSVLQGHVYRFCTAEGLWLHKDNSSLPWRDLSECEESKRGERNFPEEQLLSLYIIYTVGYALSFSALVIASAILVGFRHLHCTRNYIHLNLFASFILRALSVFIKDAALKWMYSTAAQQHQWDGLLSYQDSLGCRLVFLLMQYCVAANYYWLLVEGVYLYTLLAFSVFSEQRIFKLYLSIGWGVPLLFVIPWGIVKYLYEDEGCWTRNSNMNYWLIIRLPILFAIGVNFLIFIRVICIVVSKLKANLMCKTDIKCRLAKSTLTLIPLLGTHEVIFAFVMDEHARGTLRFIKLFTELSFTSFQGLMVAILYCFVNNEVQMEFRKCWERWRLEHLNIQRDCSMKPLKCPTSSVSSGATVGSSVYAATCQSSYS
Briefly: Agonistic activity on endogenous GLP-1 receptor (cAMP, murine insulinoma cell line). The note with it: intracellular cAMP, 15 minutes at 26° C. As to the method: Agonistic activity of the test compounds on endogenous GLP-1 receptors was determined using a murine insulinoma cell line. Intracellular cAMP was used an indicator of receptor activation.
Cells were cultured for 24 h at a density of 10,000 cells/well in a 384-well plate. Medium was removed and 10 μL KRBH buffer (NaCl 130 mM, KCl 3.6 mM, NaH2PO4 0.5 mM, MgSO4 0.5 mM, CaCl2 1.5 mM) containing test compound or GLP-1 (at increasing concentrations from 0.1 pM to 100 nM) or solvent control (0.1% (v/v) DMSO) was added to the wells for 15 minutes at a temperature of 26° C.
The cellular cAMP content is measured using the AlphaScreen cAMP Functional Assay Kit (Perkin Elmer). Measurement was performed using the Envision (PerkinElmer) according to manufacturer's recommendations.
Results were converted into cAMP concentrations using a cAMP standard curve prepared in KRBH buffer containing 0.1% (v/v) DMSO. The resulting cAMP curves were plotted as absolute cAMP concentrations (nM) over log (test compound concentration) and analyzed using the curve fitting program XLfit. […]

Experiment [2] deals with T2, human glucagon-like peptide 1 receptor (GLP-1R) (Homo sapiens, UniProt P43220).
T2 construct: expressed in transfected cells
Description: GLP-1 receptor efficacy assay (cAMP AlphaScreen, CHO cells). As to conditions: EC50 [GLP-1R] / EC50 [Glucagon-R], human receptors in CHO-K1. In a few lines:
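Stable CHO clones expressing the human receptor, seeded 24 h before assay. Peptides applied for 15 min at room temperature in KRBH with 0.1 mM IBMX; cells lysed and cAMP quantified by AlphaScreen. EC50 and efficacy relative to glucagon or GLP-1 from curve fitting.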
A general note: Bead proximity is the source of the signal in Alpha formats.

Experiment [3] deals with T3, endogenous glucagon receptor (Rattus norvegicus, UniProt P30082).
T3 construct: Agonistic activity of the test compounds on endogenous glucagon receptor; endogenous in cells; host or cells: primary rat hepatocytes
Description: Agonistic activity on endogenous glucagon receptor (glycogen synthesis rate in primary rat hepatocytes). The note with it: inhibition of glycogen synthesis rate (14C-glucose incorporation), 3 hours. Here is the method: Agonistic activity of the test compounds on endogenous glucagon receptor was determined by measuring their effect on rate of glycogen synthesis in primary rat hepatocytes. Upon activation of the glucagon receptor, an inhibition of the glycogen synthesis rate is expected. Rate of glycogen synthesis was determined by counting the amount of radioactively labeled glucose incorporated into the cellular glycogen stores in a defined period of time.
Primary rat hepatocytes were cultured at a density of 40,000 cells/well in a 24-well plate for 24 hours at 37° C. and 5% CO2.
Medium was discarded and the cells washed with PBS. 180 μL of KRBH-based buffer containing 0.1% BSA and glucose at a concentration of 22.5 mM was then added to the wells, followed by test compound and 40 μCi/ml D-[U14C] glucose (20 μL each). Incubation was continued for 3 hours.
At the end of the incubation period, the incubation buffer was aspirated and cells washed once with ice-cold PBS before lysis by incubation for 30 min at room temperature with 100 μL 1 mol/l NaOH.
Cell lysates were transferred to 96-well filter plates and glycogen precipitated by incubating the filter-plates for 120 min at 4° C. followed by washing the filter plates 4 times with ice-cold ethanol (70%). The resulting precipitates were filtered to dryness and the amount of incorporated ^14C-glucose determined by using a Topcount scintillation counter according to manufacturer's recommendations.
Wells with vehicle controls (0.1% (v/v) DMSO in KRBH buffer) were included as reference for non-inhibited glycogen synthesis (100% CTL). Wells without added D-[U^14C] glucose were included as controls for non-specific background signal (subtracted from all values). Endogenous glucagon peptide was used as a positive control.
All treatments were performed at least in duplicates.
Parameters calculated to describe both the potency as well as the agonistic activity of each test compound on the endogenous glucagon receptor are pEC50 and % CTL.
% CTL is determined by calculating the percentage of CPM/well in the presence of the test compound compared to the CPM/well of the vehicle control after subtracting the background CPM/well: [CPM/well(basal)−CPM/well(sample)]*100/[CPM/well(basal)−CPM/well(control)]
An activator of the glucagon receptor will result in an inhibition of the glycogen synthesis rate and will give % CTL values between 0% CTL (complete inhibition) and 100% CTL (no observable inhibition).
The resulting activity curves were plotted as absolute counts (unit: cpm/sample) over log (test compound concentration) and analyzed using the curve fitting program XLfit.
pEC50 (negative logarithmic value of EC50) reflects the potency of the test compound. […]

In experiment [4] the target is T4, human glucagon receptor (Glucagon-R) (Homo sapiens, UniProt P47871).
T4 construct: expressed in transfected cells
Description: Glucagon receptor efficacy assay (cAMP AlphaScreen, CHO cells). The note with it: cAMP formation, CHO cells expressing human Glucagon-R, 15 min; read-out: EC50 hGCGR CHO-K1. The source says:
The cDNA encoding either the human glucagon receptor (Glucagon-R) (primary accession number P47871) or the human glucagon-like peptide 1 receptor (GLP-1R) (primary accession number P43220) were synthesized and cloned into a mammalian expression vector containing a Zeocin resistance marker.
The mammalian expression vectors encoding the Glucagon-R or the GLP-1-R were transfected into Chinese hamster ovary (CHO) cells by the Attractene method. Stably expressing clones were obtained by Zeocin selection (250 μg/mL) upon limited dilution of cells resistant to the selection pressure. Glucagon-R and GLP-1-R cell clones expressing were picked, propagated and tested in the Glucagon-R and GLP-1-R efficacy assays as described below. One Glucagon-R expressing clone and one GLP-1-R expressing clone were chosen for compound profiling.
CHO cells expressing the human Glucagon-R, or human GLP-1-R were seeded 24 hours prior to the assay at 30,000 cells per well in 96-well microtiter plates in culture in 100 μl growth medium. On the day of analysis, growth medium was removed and the cells were washed once with 200 μl of assay buffer (Krebs-Ringer-buffer—KRBH). The buffer was removed and the cells were incubated for 15 min at room temperature in 10 μl KRBH (KRBH+10 mM HEPES, 5 mM NaHCO3, 0.1% (V/V) BSA) with 0.1 mM IBMX in deionized water containing increasing concentrations of test peptides. The reaction was stopped by the addition of lysis buffer (0.1% w/v BSA, 5 mM HEPES, 0.3% v/v Tween-20). After cell lysis for 10 min at room temperature, lysates were transferred to 384-well plates and 10 μl of acceptor/donorbead mixture as contained in the AlphaScreen™ cAMP Functional Assay Kit was added. After one hour of incubation at room temperature in the dark, the cAMP content was determined applying the AlphaScreen™ cAMP Functional Assay Kit from Perkin-Elmer according to manufacturer instructions. EC50 and relative efficacies compared to reference compounds (glucagon and GLP-1) were calculated applying computer aided curve fitting. The GLP-1/glucagon ratio is calculated as defined earlier.

T2 sequence (P43220 24-463): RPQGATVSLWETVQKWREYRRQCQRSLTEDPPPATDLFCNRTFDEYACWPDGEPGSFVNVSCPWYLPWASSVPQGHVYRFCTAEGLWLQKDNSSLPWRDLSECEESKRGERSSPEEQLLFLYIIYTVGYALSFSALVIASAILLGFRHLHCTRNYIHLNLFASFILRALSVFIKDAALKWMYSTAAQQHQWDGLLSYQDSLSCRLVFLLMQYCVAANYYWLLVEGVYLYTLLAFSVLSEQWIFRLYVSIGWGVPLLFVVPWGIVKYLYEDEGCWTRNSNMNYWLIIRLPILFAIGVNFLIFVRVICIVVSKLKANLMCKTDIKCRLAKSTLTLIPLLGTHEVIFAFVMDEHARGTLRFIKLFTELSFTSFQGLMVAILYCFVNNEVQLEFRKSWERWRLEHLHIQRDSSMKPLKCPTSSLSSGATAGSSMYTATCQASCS
T3 sequence (P30082 27-485): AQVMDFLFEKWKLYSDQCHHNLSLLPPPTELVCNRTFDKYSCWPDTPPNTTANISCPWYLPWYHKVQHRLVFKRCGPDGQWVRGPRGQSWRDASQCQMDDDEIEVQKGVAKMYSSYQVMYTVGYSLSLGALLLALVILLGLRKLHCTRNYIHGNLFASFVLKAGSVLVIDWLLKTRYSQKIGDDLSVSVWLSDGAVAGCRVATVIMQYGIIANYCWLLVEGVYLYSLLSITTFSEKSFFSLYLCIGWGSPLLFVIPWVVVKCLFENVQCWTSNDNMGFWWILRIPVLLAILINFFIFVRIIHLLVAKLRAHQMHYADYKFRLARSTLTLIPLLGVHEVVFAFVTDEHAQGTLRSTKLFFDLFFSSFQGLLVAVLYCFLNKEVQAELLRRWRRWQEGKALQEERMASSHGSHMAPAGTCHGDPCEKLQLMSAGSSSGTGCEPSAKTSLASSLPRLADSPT
T4 sequence (P47871 26-477): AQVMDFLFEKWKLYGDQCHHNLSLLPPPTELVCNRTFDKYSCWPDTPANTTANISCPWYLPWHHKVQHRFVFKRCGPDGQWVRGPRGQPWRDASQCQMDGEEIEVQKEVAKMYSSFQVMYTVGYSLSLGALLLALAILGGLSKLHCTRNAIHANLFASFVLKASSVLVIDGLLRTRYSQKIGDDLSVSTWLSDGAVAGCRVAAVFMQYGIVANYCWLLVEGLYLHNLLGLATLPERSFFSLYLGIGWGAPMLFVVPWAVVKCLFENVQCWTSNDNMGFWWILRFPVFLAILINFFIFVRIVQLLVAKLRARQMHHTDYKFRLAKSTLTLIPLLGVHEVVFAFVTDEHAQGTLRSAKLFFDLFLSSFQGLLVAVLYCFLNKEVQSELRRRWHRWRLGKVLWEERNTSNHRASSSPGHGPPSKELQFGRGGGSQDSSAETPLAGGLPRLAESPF

What is called EC50 is the midpoint of the concentration-response curve. In experiment [1], `CC[C@H](C)[C@H](NC(=O)[C@H](Cc1ccccc1)NC(=O)[C@H](CC(=O)O)NC(=O)[C@H](CCCCN)NC(=O)[C@H](C)NC(=O)[C@H](C)NC(=O)[C@H](CCCCNC(=O)CC[C@H](NC(=O)CCCCCCCCCCCCCCCCC(=O)O)C(=O)O)NC(=O)[C@H](CCC(=O)O)NC(=O)[C@H](CC(=O)O)NC(=O)[C@H](CC(C)C)NC(=O)[C@H](Cc1ccc(O)cc1)NC(=O)[C@H](CCCCN)NC(=O)[C@H](CO)NC(=O)[C@H](Cc1ccc(O)cc1)NC(=O)[C@H](CC(=O)O)NC(=O)[C@H](CO)NC(=O)[C@@H](NC(=O)[C@H](Cc1ccccc1)NC(=O)[C@@H](NC(=O)CNC(=O)[C@H](CCC(N)=O)NC(=O)C(C)(C)NC(=O)[C@@H](N)Cc1c[nH]cn1)[C@@H](C)O)[C@@H](C)O)C(=O)N[C@@H](CCC(=O)O)C(=O)N[C@@H](Cc1c[nH]c2ccccc12)C(=O)N[C@@H](CC(C)C)C(=O)N[C@@H](CCC(=O)O)C(=O)N[C@@H](CO)C(=O)N[C@@H](C)C(N)=O` [Compound 10, H-H-Aib-QGTFTSDYSKYLDE-K([17-carboxy-heptadecanoyl]-isoGlu)-AAKDFIEWLESA-NH2] registered an EC50 of 0.6 nM. In experiment [2], the “Ratio GLP-1/Glucagon” value is 0.38.
The like results for `CC(C)C[C@H](NC(=O)[C@H](CC(C)C)NC(=O)[C@H](Cc1c[nH]c2ccccc12)NC(=O)[C@H](CCC(=O)O)NC(=O)[C@@H](NC(=O)[C@H](Cc1ccccc1)NC(=O)[C@H](CC(=O)O)NC(=O)[C@H](Cc1c[nH]cn1)NC(=O)[C@H](C)NC(=O)[C@H](C)NC(=O)[C@H](CCCCNC(=O)CC[C@H](NC(=O)CCCCCCCCCCCCCCC(=O)O)C(=O)O)NC(=O)[C@H](CO)NC(=O)[C@H](CC(=O)O)NC(=O)[C@H](CC(C)C)NC(=O)[C@H](Cc1ccc(O)cc1)NC(=O)[C@H](CCCCN)NC(=O)[C@H](CO)NC(=O)[C@H](Cc1ccc(O)cc1)NC(=O)[C@H](CC(=O)O)NC(=O)[C@H](CO)NC(=O)[C@@H](NC(=O)[C@H](Cc1ccccc1)NC(=O)[C@@H](NC(=O)CNC(=O)[C@H](CCC(N)=O)NC(=O)C(C)(C)NC(=O)[C@@H](N)Cc1c[nH]cn1)[C@@H](C)O)[C@@H](C)O)C(C)C)C(=O)N[C@@H](CO)C(=O)N[C@@H](C)C(N)=O` [Compound 1, H-H-Aib-QGTFTSDYSKYLDS-K([15-carboxy-pentadecanoyl]-isoGlu)-AAHDFVEWLLSA-NH2] were, in that order, 0.6 nM and 1.81.
With `CC[C@H](C)[C@H](NC(=O)[C@H](Cc1ccccc1)NC(=O)[C@H](CC(=O)O)NC(=O)[C@H](CCCCN)NC(=O)[C@H](C)NC(=O)[C@H](CCCNC(=N)N)NC(=O)[C@H](CCCNC(=N)N)NC(=O)[C@H](CCC(=O)O)NC(=O)[C@H](CC(=O)O)NC(=O)[C@H](CC(C)C)NC(=O)[C@H](Cc1ccc(O)cc1)NC(=O)[C@H](CCCCN)NC(=O)[C@H](CO)NC(=O)[C@H](Cc1ccc(O)cc1)NC(=O)[C@H](CC(=O)O)NC(=O)[C@H](CO)NC(=O)[C@@H](NC(=O)[C@H](Cc1ccccc1)NC(=O)[C@@H](NC(=O)CNC(=O)[C@H](CCC(N)=O)NC(=O)C1(NC(=O)[C@@H](N)Cc2c[nH]cn2)CCC1)[C@@H](C)O)[C@@H](C)O)C(=O)N[C@@H](CCCCNC(=O)CNC(=O)CNC(=O)[C@H](CO)NC(=O)CNC(=O)[C@H](CO)NC(=O)CNC(=O)CC[C@H](NC(=O)CCCCCCCCCCCCCCCCC(=O)O)C(=O)O)C(=O)N[C@@H](Cc1c[nH]c2ccccc12)C(=O)N[C@@H](CC(C)C)C(=O)N[C@@H](CCC(=O)O)C(=O)N[C@@H](CO)C(=O)N[C@@H](C)C(N)=O` [Compound 14], the results for the EC50 in experiment [3] and in experiment [4] were 0.19 nM and 0.18 nM, respectively. Besides, in experiment [2], the “Ratio GLP-1/Glucagon” value is 3.33.
